For test [1], the target named is T1, human orexin-2 receptor (hOX2R) (Homo sapiens, UniProt O43614).
T1 construct: expressed in transfected cells; host or cells: Chinese hamster ovary (CHO) cells, grown under G418 selection
T1 sequence (O43614 1-444): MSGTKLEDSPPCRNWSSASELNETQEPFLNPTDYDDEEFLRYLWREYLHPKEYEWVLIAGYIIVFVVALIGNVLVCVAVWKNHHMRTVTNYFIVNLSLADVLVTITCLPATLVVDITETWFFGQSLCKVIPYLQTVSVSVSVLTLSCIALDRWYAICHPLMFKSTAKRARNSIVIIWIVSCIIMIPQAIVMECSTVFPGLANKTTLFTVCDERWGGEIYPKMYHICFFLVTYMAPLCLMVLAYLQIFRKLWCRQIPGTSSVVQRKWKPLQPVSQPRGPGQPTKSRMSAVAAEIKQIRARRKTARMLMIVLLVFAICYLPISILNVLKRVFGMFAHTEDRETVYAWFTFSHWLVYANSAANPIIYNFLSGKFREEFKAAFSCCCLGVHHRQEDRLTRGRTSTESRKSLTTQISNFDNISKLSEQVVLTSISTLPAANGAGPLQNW
As to the kind of experiment: FLIPR Ca2+ Flux Assay, CHO cells expressing hOX2R. Format: cell-based. The following applies: agonist 70 pM Ala-6,12 orexin-A. On the procedure:
The utility of the compounds in accordance with the present invention as orexin receptor OX1R and/or OX2R antagonists may be readily determined without undue experimentation by methodology well known in the art, including the “FLIPR Ca^2+ Flux Assay” (Okumura et al., Biochem. Biophys. Res. Comm. 280:976-981, 2001). In a typical experiment the OX1 and OX2 receptor antagonistic activity of the compounds of the present invention was determined in accordance with the following experimental method. For intracellular calcium measurements, Chinese hamster ovary (CHO) cells expressing the rat orexin-1 receptor or the human orexin-2 receptor, are grown in Iscove's modified DMEM containing 2 mM L-glutamine, […], 1% hypoxanthine-thymidine supplement, 100 U/ml penicillin, 100 μg/ml streptomycin and 10% heat-inactivated fetal calf serum (FCS). The cells are seeded at 20,000 cells/well into Becton-Dickinson black 384-well clear bottom sterile plates coated with poly-D-lysine. All reagents were from GIBCO-Invitrogen Corp. The seeded plates are incubated overnight at 37° C. and 5% CO2. Ala-6,12 human orexin-A as the agonist is prepared as a 1 mM stock solution in 1% bovine serum albumin (BSA) and diluted in assay buffer (HBSS containing 20 mM HEPES, 0.1% BSA and 2.5 mM probenecid, pH7.4) for use in the assay at a final concentration of 70 pM. Test compounds are prepared as 10 mM stock solution in DMSO, then diluted in 384-well plates, first in DMSO, then assay buffer. On the day of the assay, cells are washed 3 times with 100 μl assay buffer and then incubated for 60 min (37° C., 5% CO2) in 60 μl assay buffer containing 1 μM Fluo-4AM ester, 0.02% pluronic acid, and 1% BSA. The dye loading solution is then aspirated and cells are washed 3 times with 100 μl assay buffer. 30 μl of that same buffer is left in each well. Within the Fluorescent Imaging Plate Reader (FLIPR, Molecular Devices), test compounds are added to the plate in a volume of 25 μl, incubated for 5 min and finally 25 μl of agonist is added. Fluorescence is measured for each well at 1 second intervals for 5 minutes and the height of each fluorescence peak is compared to the height of the fluorescence peak induced by 70 pM Ala-6,12 orexin-A with buffer in place of antagonist. For each antagonist, IC50 value (the concentration of compound needed to inhibit 50% of the agonist response) is determined. Alternatively, compound potency can be assessed by a radioligand binding assay (described in Bergman et. al. Bioorg. Med. Chem. Lett. 2008, 18, 1425-1430) in which the inhibition constant (Ki) is determined in membranes prepared from CHO cells expressing either the OX1 or OX2 receptor. The intrinsic orexin receptor antagonist activity of a compound which may be used in the present invention may be determined by these assays.
Chinese hamster ovary (CHO) cells expressing the human orexin-1 receptor (hOX1R) or the human orexin-2 receptor (hOX2R) were grown in Iscove's modified DMEM containing 2 mM L-glutamine, […], 1% hypoxanthine-thymidine supplement, 100 U/ml penicillin, 100 μg/ml streptomycin and 10% heat-inactivated fetal calf serum (FCS). The cells were seeded at 20,000 cells/well into Becton-Dickinson black 384-well clear bottom sterile plates coated with poly-D-lysine. All reagents were from GIBCO-Invitrogen Corp. The seeded plates were incubated overnight at 37° C. and 5% CO2. Ala-6,12 human orexin-A, used as the agonist, was prepared as a 1 mM stock solution in 1% bovine serum albumin (BSA) and diluted in assay buffer (HBSS containing 20 mM HEPES, 0.1% BSA and 2.5 mM probenecid, pH7.4) for use in the assay at a final concentration of 70 pM. Test compounds were prepared as 10 mM stock solution in DMSO, then diluted in 384-well plates, first in DMSO, then assay buffer. […]

The target of test [2] is T2, human orexin-1 receptor (hOX1R) (Homo sapiens, UniProt O43613).
T2 construct: expressed in transfected cells; host or cells: Chinese hamster ovary (CHO) cells, grown under G418 selection
T2 sequence (O43613 1-425): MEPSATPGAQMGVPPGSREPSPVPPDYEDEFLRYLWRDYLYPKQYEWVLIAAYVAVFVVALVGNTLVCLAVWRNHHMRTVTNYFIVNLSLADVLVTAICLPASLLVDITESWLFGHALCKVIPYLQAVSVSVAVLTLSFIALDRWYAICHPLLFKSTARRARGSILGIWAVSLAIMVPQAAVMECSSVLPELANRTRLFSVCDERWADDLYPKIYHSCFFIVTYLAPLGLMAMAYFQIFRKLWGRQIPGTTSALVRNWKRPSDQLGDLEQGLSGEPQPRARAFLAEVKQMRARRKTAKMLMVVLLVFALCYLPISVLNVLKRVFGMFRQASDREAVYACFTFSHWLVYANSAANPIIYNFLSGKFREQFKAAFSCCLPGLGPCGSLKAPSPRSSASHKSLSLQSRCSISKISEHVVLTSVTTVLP
The experiment in a line: FLIPR Ca2+ Flux Assay, CHO cells expressing hOX1R. The format is cell-based. The note with it: agonist 70 pM Ala-6,12 orexin-A. How it is done:
Chinese hamster ovary (CHO) cells expressing the human orexin-1 receptor (hOX1R) or the human orexin-2 receptor (hOX2R) were grown in Iscove's modified DMEM containing 2 mM L-glutamine, […], 1% hypoxanthine-thymidine supplement, 100 U/ml penicillin, 100 μg/ml streptomycin and 10% heat-inactivated fetal calf serum (FCS). The cells were seeded at 20,000 cells/well into Becton-Dickinson black 384-well clear bottom sterile plates coated with poly-D-lysine. All reagents were from GIBCO-Invitrogen Corp. The seeded plates were incubated overnight at 37° C. and 5% CO2. Ala-6,12 human orexin-A, used as the agonist, was prepared as a 1 mM stock solution in 1% bovine serum albumin (BSA) and diluted in assay buffer (HBSS containing 20 mM HEPES, 0.1% BSA and 2.5 mM probenecid, pH7.4) for use in the assay at a final concentration of 70 pM. Test compounds were prepared as 10 mM stock solution in DMSO, then diluted in 384-well plates, first in DMSO, then assay buffer.
On the day of the assay, cells were washed 3× with 100 μl assay buffer and then incubated for 60 minutes (37° C., 5% CO2) in 60 μl assay buffer containing 1 μM Fluo-4AM ester, 0.02% pluronic acid, and 1% BSA. The dye loading solution was then aspirated and cells were washed 3× with 100 μl assay buffer. 30 μl of that same buffer was left in each well. Within the Fluorescent Imaging Plate Reader (FLIPR, Molecular Devices), test compounds were added to the plate in a volume of 25 μl, incubated for 5 minutes, and then 25 μl of agonist was added. Fluorescence was measured for each well at 1 second intervals for 5 minutes, and the height of each fluorescence peak was compared to the height of the fluorescence peak induced by 70 pM of Ala-6,12 orexin-A with buffer in place of test compound.

The structures appear in SMILES notation. pIC50: −log10 of the molar value.

With `C[C@@H]1CC[C@@H](Oc2ncccc2C(C)(C)O)CN1C(=O)c1ccc(F)cc1-n1nccn1` [Example 4, 2-(2-{[(3R,6R)-1-{[4-fluoro-2-(2H-1,2,3-triazol-2-yl)phenyl]carbonyl}-6-methylpiperidin-3-yl]oxy}pyridin-3-yl)propan-2-ol], the pIC50 was 7.17 in test [1] and 6.37 in test [2].
On the same counts, the results for `COc1ccc(C(=O)N2C[C@H](Oc3ncccc3C(C)(C)O)CC[C@H]2C)c(-c2ccccc2)n1` [Example 10, 2-[2-({(3R,6R)-1-[(6-methoxy-2-phenylpyridin-3-yl)carbonyl]-6-methylpiperidin-3-yl}oxy)pyridin-3-yl]propan-2-ol] are 6.80 and 6.36.
With `C[C@@H]1CC[C@@H](Oc2ncccc2C(C)(C)O)CN1C(=O)c1cc(F)ccc1-c1ncccn1` [Example 22, 2-[2-({(3R,6R)-1-[(5-fluoro-2-pyrimidin-2-yl-phenyl)carbonyl]-6-methylpiperidin-3-yl}oxy)pyridin-3-yl]propan-2-ol], the pIC50 in test [1] was 7.09; in test [2], 6.85.
On the same counts, the results for `C[C@@H]1CC[C@@H](Oc2ncccc2C(C)(C)O)CN1C(=O)c1sccc1-c1ncccn1` [Example 24, 2-[2-({(3R,6R)-6-methyl-1-[(3-pyrimidin-2-yl-thiophen-2-yl)carbonyl]piperidin-3-yl}oxy)pyridin-3-yl] propan-2-ol] are 7.46 and 7.11.
For the compound `C#C[C@@H](O)c1cccnc1O[C@@H]1CC[C@@H](C)N(C(=O)c2ccccc2-n2nccn2)C1` [Example 35, (1R)-1-(2-{[(3R,6R)-6-methyl-1-{[2-(2H-1,2,3-triazol-2-yl)phenyl]carbonyl}piperidin-3-yl]oxy}pyridin-3-yl)prop-2-yn-1-ol], the pIC50 in test [1] is 7.57; in test [2], 7.19.
Regarding `C[C@@H]1CC[C@@H](Oc2ncccc2C(C)(C)O)CN1C(=O)c1ccsc1-n1nccn1` [Example 18, 2-(2-{[(3R,6R)-6-methyl-1-{[2-(2H-1,2,3-triazol-2-yl)thiophen-3-yl]carbonyl}piperidin-3-yl]oxy}pyridin-3-yl)propan-2-ol], the pIC50 is 8.05 in test [1] and 7.74 in test [2].
In the case of `C[C@@H]1CC[C@@H](Oc2ncccc2C(C)(C)O)CN1C(=O)c1cc(Cl)ccc1-n1nccn1` [Example 6, 2-(2-{[(3R,6R)-1-{[5-chloro-2-(2H-1,2,3-triazol-2-yl)phenyl]carbonyl}-6-methylpiperidin-3-yl]oxy}pyridin-3-yl)propan-2-ol], the pIC50 in test [1] is 7.18; in test [2] it was 6.85.
The matching figures for `COc1ccnc(O[C@@H]2CC[C@@H](C)N(C(=O)c3ccccc3-n3nccn3)C2)c1CO` [Example 46, (4-Methoxy-2-{[(3R,6R)-6-methyl-1-{[2-(2H-1,2,3-triazol-2-yl)phenyl]carbonyl}piperidin-3-yl]oxy}pyridin-3-yl)methanol]: 7.47 and 5.93.
On the same counts, the results for `COc1ccnc(O[C@@H]2CC[C@@H](C)N(C(=O)c3ccccc3-n3nccn3)C2)c1C(C)(C)O` [Example 27, 2-(4-Methoxy-2-{[(3R,6R)-6-methyl-1-{[2-(2H-1,2,3-triazol-2-yl)phenyl]carbonyl}piperidin-3-yl]oxy}pyridin-3-yl)propan-2-ol] are 7.60 and 6.40.
On to `C[C@@H]1CC[C@@H](Oc2nccc(C3CC3)c2CO)CN1C(=O)c1ccccc1-n1nccn1` [Example 42, (4-cyclopropyl-2-{[(3R,6R)-6-methyl-1-{[2-(2H-1,2,3-triazol-2-yl)phenyl]carbonyl}piperidin-3-yl]oxy}pyridin-3-yl) methanol], for which the results for the pIC50 in test [1] and in test [2] were 7.77 and 6.97, respectively.
On the same counts, the results for `C[C@H](O)c1cccnc1O[C@@H]1CC[C@@H](C)N(C(=O)c2ccccc2-n2nccn2)C1` [Example 30, (1S)-1-(2-{[(3R,6R)-6-Methyl-1-{[2-(2H-1,2,3-triazol-2-yl)phenyl]carbonyl}piperidin-3-yl]oxy}pyridin-3-yl)ethanol] are 7.43 and 7.12.
On the same counts, the results for `C[C@@H]1CC[C@@H](Oc2nccc(C(F)(F)F)c2CO)CN1C(=O)c1ccccc1-n1nccn1` [Example 44, [2-{[(3R,6R)-6-methyl-1-{[2-(2H-1,2,3-triazol-2-yl)phenyl]carbonyl}piperidin-3-yl]oxy}-4-(trifluoromethyl)pyridin-3-yl] methanol] are 7.74 and 7.09.
Consider `C[C@@H]1CC[C@@H](Oc2ncccc2[C@@H](O)C(F)(F)F)CN1C(=O)c1ccccc1-n1nccn1` [Example 37, (1R)-2,2,2-Trifluoro-1-(2-{[(3R,6R)-6-methyl-1-{[2-(2H-1,2,3-triazol-2-yl)phenyl]carbonyl}piperidin-3-yl]oxy}pyridin-3-yl)ethanol], for which the pIC50 was 7.74 in test [1] and 7.26 in test [2].

For the origin of these results see patent US20160102073A1, “2-HYDROXYMETHYL-SUBSTITUTED OREXIN RECEPTOR ANTAGONISTS” (MERCK SHARP & DOHME CORP., priority 2013, published 2016).
